One assay concerns the target T1, wild-type CysLT1R (Homo sapiens, UniProt Q9Y271).
T1 construct: expressed in transfected cells; host or cells: HEK293 (ATCC CRL-1573), transient transfection with Lipofectamine 3000
T1 sequence (Q9Y271 1-337): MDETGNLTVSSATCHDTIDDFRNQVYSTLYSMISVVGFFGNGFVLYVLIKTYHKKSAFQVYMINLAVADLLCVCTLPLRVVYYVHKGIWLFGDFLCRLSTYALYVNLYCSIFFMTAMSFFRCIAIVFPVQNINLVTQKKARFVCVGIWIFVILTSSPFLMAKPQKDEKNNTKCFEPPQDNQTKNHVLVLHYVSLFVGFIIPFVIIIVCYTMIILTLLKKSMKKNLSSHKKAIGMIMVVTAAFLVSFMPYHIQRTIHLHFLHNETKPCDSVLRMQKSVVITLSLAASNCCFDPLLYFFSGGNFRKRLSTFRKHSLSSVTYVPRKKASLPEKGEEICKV
Put plainly: IP1 production assay, antagonist mode, co-stimulation with EC80 LTD4. The note with it: for inhibition at 30 µM: HEK293, compound 30 µM, LTD4 at EC80, HEK293, wild-type CysLT1R, read-out: inhibition of LTD4-induced IP1 production, single-concentration screen; for Emax: HEK293, read-out: CysLT1R (LTD4) % Max Inhibition ± SEM. It counts as cell-based. As for the experimental part: (§1) For this assay, we used the Cisbio IP-One kit as previously described. […] At 48 h post-transfection, the media was removed and the cells were washed with fresh Hank’s Balanced Salt Solution (HBSS). […] After compound stimulation, the cells were incubated for 1 h at 37 °C and stimulated with IP1-D2 and Ab-Crypt reagents in Lysis Buffer. The cells were then incubated at room temperature for an additional hour. […] Normalized data were plotted using either the three-parameter or four-parameter EC50/IC50 fits of GraphPad Prism 8 (San Diego). […] Data represent the means ± SEM of at least three independent experiments performed in quadruplicate.

In the next assay the target is T2, wild-type CysLT2R (Homo sapiens, UniProt Q9NS75).
T2 construct: expressed in transfected cells; host or cells: HEK293 (ATCC CRL-1573), transient transfection with Lipofectamine 3000
T2 sequence (Q9NS75 1-346): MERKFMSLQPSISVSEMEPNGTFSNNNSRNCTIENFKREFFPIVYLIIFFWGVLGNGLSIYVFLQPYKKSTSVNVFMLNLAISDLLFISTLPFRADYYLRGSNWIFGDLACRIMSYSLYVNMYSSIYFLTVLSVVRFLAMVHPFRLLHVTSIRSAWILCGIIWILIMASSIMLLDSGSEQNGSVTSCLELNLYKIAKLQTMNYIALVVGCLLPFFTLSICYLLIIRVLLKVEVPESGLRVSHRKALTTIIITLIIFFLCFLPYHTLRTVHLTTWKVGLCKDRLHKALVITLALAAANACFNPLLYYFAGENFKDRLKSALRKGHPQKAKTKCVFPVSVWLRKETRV
The description is as above. The note with it: for inhibition at 30 µM: HEK293, compound 30 µM, LTD4 at EC80, HEK293, wild-type CysLT2R, read-out: inhibition of LTD4-induced IP1 production, single-concentration screen; for Emax: HEK293, read-out: CysLT2R (LTD4) % Max Inhibition ± SEM. Format: cell-based. The method, then: as §1

These results are taken from article PMC7761830, “Structure-Based Virtual Screening of Ultra-Large Library Yields Potent Antagonists for a Lipid GPCR” (Biomolecules, 2020).

SMILES strings stand for the structures.

For the molecule `O=C(Cc1cccc(OCc2cccnc2)c1)Nc1cccc(-n2ccc(C(=O)O)n2)c1` [BRI-12414], the remaining activity at 30 µM was 81.8% on wild-type CysLT1R and 84.9% on wild-type CysLT2R.
As to `Cc1ccc2c(CC(=O)N3CCN(C(=O)c4ccc(C(N)=O)o4)CC3)c[nH]c2c1` [BRI-12462], the remaining activity at 30 µM is 77.1% at wild-type CysLT1R and 78.1% at wild-type CysLT2R.
The matching figures for `COc1ccc(NC(=O)CN(C)C(=O)c2ccccc2-n2cnnn2)cc1` [BRI-12357]: 77% and 65.7%.
Taken in the same sequence, the figures for `O=C(O)CC(NC(=O)Cn1ncc2ccccc21)c1ccc(F)cc1` (stereo not shown) [BRI-12305] were 93.1% and 109%.
As to `NC(=O)c1ncn(C2CCCN(c3nc(-c4ccccc4)cs3)C2)n1` (stereo not shown) [BRI-12455], the remaining activity at 30 µM at wild-type CysLT1R was found to be 84.2%; at wild-type CysLT2R it was 71.1%.
In the case of `COc1ccc(C2=NN(C(=O)CCC(=O)O)C(c3cccs3)C2)cc1` (stereo not shown) [BRI-12348], the results for the remaining activity at 30 µM at wild-type CysLT1R and at wild-type CysLT2R were 89.5% and 107%, respectively.
The matching figures for `CC(Sc1nc(Nc2ccccc2)c2ccccc2n1)C(=O)N1CCNC1=O` (stereo not shown) [BRI-12358]: 58% and 73.5%.
Taken in the same sequence, the figures for `CCOc1ccc(NC(=O)c2cccn3nnnc23)c(C(N)=O)c1` [BRI-12469] were 80.7% and 52.8%.
Taken in the same sequence, the figures for `O=C(O)CCc1cccc(NC(=O)c2ccc(-c3cccs3)[nH]c2=O)c1` [BRI-12475] were 68.3% and 74.6%.
Take `Cn1cc(C(N)=O)c(NC(=O)CCc2cccc(C(F)(F)F)c2)n1` [BRI-12327]: the remaining activity at 30 µM was found to be 68.5% on wild-type CysLT1R and 73.4% at wild-type CysLT2R.
On to `Cc1nonc1CC(=O)NC1(CNC(=O)c2cc3occc3s2)CCC1` [BRI-12463], for which the values for the remaining activity at 30 µM at wild-type CysLT1R and on wild-type CysLT2R were 81.2% and 57.8%, respectively.
Turning to `CC(C)c1cc(C(=O)Nc2ccc(C(=O)NCC(=O)O)cc2)nn1C` [BRI-12406], the remaining activity at 30 µM at wild-type CysLT1R came out at 79.6%; at wild-type CysLT2R, 68.4%.
The matching figures for `O=C(O)CNC(=O)c1ccc(NC(=O)COCc2ccccc2)cc1` [BRI-12473]: 86.5% and 66.6%.
Taken in the same sequence, the figures for `O=C(O)CN(CC(=O)O)S(=O)(=O)Cc1cc(Cl)cc(Cl)c1` [BRI-12456] were 96.3% and 65.2%.
As to `CCc1ncnc(N[C@H]2C[C@@H](CNC(=O)c3ccn4cc(C)nc4c3)C2)c1F` [BRI-12458], at wild-type CysLT1R, the remaining activity at 30 µM stood at 51.3%, the inhibition at 30 µM is at least 50% and the Emax was found to be 38 ± 16%. At wild-type CysLT2R, the remaining activity at 30 µM was 40.9%, the inhibition at 30 µM is at least 50% and the Emax amounted to 13 ± 10%.
For `COc1ccc(C2=NN(C(=O)CCC(=O)O)C(c3cccs3)C2)c(O)c1` (stereo not shown) [BRI-12316], the remaining activity at 30 µM at wild-type CysLT1R was 91%; at wild-type CysLT2R it was 90%.
With `CC(Sc1nnc(-c2c[nH]c3ccccc23)n1C1CC1)C(=O)NC(N)=O` (stereo not shown) [BRI-12347], the figures for the remaining activity at 30 µM on wild-type CysLT1R and at wild-type CysLT2R were 79.7% and 104%, respectively.
`CC(CNS(=O)(=O)c1csc(-c2ccc(F)cc2)n1)C(=O)O` (stereo not shown) [BRI-12464]: the remaining activity at 30 µM turned out to be 103% on wild-type CysLT1R and 60.8% at wild-type CysLT2R.
For the molecule `CC(Sc1ccccc1C(=O)O)C(=O)N1CC(=O)Nc2ccccc21` (stereo not shown) [BRI-12351], the remaining activity at 30 µM came to 77.6% on wild-type CysLT1R and 82.6% at wild-type CysLT2R.
Turning to `COc1cccc(CC(=O)N[C@H]2[C@@H]3CC[C@@H](C3)[C@H]2C(=O)O)c1Cl` [BRI-12468], the remaining activity at 30 µM worked out at 89.1% on wild-type CysLT1R and 64.6% at wild-type CysLT2R.
As to `COC[C@@H](C)n1c(-c2ccc3[nH]c(=O)oc3c2)csc1=Nc1ccc(C(N)=O)cc1` [BRI-12477], the results for the remaining activity at 30 µM at wild-type CysLT1R and at wild-type CysLT2R were 74.9% and 60.6%, respectively.
The matching figures for `CN(CC(=O)Nc1ccc2[nH]ncc2c1)C1=NS(=O)(=O)c2ccccc21` [BRI-12331]: 84.3% and 92.8%.
Turning to `O=C(NCCc1c[nH]c2cc(Cl)ccc12)c1ccc(NC2=NS(=O)(=O)c3ccccc32)cc1` [BRI-12478], the remaining activity at 30 µM came out at 82.9% at wild-type CysLT1R and 65.9% at wild-type CysLT2R.
The matching figures for `COc1ccccc1OCc1ccc(C(=O)N[C@@H](CC(=O)O)c2ccc(Cl)cc2)o1` [BRI-12443]: 84.5% and 82.3%.
The matching figures for `O=C(CCCc1ccc2[nH]c(=O)[nH]c2c1)Nc1ccc(C(=O)Nc2cccnc2)cc1` [BRI-12415]: 85.1% and 56.8%.
For `O=C1COc2ccc(C(=O)Cn3cnc4sc5c(c4c3=O)CCC5)cc2N1` [BRI-12335], the results for the remaining activity at 30 µM on wild-type CysLT1R and on wild-type CysLT2R were 73.8% and 74.8%, respectively.
Consider `O=C(O)CNS(=O)(=O)c1cccc(NC(=O)c2ccc(C3CCC3)cc2)c1` [BRI-12429], for which the remaining activity at 30 µM turned out to be 72.3% at wild-type CysLT1R and 68% on wild-type CysLT2R.
The matching figures for `O=C(O)CC(NS(=O)(=O)Cc1cccc2cccnc12)c1cnn(-c2ccccc2)c1` (stereo not shown) [BRI-12460]: 83.9% and 73.5%.
As to `COc1ccccc1C(=O)NCC1CN(C(=O)c2ccc3[nH]c(=O)n(C)c3c2)C1` [BRI-12461], the values for the remaining activity at 30 µM on wild-type CysLT1R and at wild-type CysLT2R were 87.6% and 58.4%, respectively.
`O=C(O)CC(CNS(=O)(=O)c1ccc(Oc2ccc(Cl)cc2)cc1)C(=O)O` (stereo not shown) [BRI-12421]: the results for the remaining activity at 30 µM at wild-type CysLT1R and at wild-type CysLT2R were 82.6% and 57.3%, respectively.
The matching figures for `O=C(NC(C(=O)O)c1ccccc1F)c1ccc(Cl)c(NC(=O)c2cccs2)c1` (stereo not shown) [BRI-12403]: 89.5% and 72%.
In the case of `O=C(NCC1(O)CN(C(=O)c2ccc(=O)[nH]c2)C1)c1ccc2c(c1)CCC2` [BRI-12467], the remaining activity at 30 µM stood at 69.4% on wild-type CysLT1R and 53.8% at wild-type CysLT2R.
Regarding `O=C(O)c1csc(S(=O)(=O)Nc2cccc(NC(=O)c3ccco3)c2)c1` [BRI-12344], the remaining activity at 30 µM on wild-type CysLT1R stood at 72.5%; on wild-type CysLT2R it was 96.8%.
With `O=C(O)CSc1nc2ccccc2c2nc(CCc3ccccc3)nn12` [BRI-12314], the remaining activity at 30 µM at wild-type CysLT1R turned out to be 66.7%; at wild-type CysLT2R it was 96.9%.
The matching figures for `O=C(O)C(Cc1c[nH]c2ncccc12)NS(=O)(=O)c1csc(-c2ccc(F)cc2)n1` (stereo not shown) [BRI-12439]: 88.3% and 72.4%.
Taken in the same sequence, the figures for `CC(=O)c1ccc(OCC(=O)NC(CC(=O)O)c2cccs2)cc1` (stereo not shown) [BRI-12319] were 76.4% and 78.4%.
Consider `CN(C(=O)c1ccc(C(=O)Nc2ccsc2C(N)=O)cc1)c1ccccc1` [BRI-12430], for which the remaining activity at 30 µM on wild-type CysLT1R stood at 79.5%; at wild-type CysLT2R, 92.5%.
Turning to `O=C(O)CNC(=O)c1ccc(S(=O)(=O)Nc2ccc3sncc3c2)cc1` [BRI-12413], the remaining activity at 30 µM at wild-type CysLT1R amounted to 80%. Also, on wild-type CysLT2R, the remaining activity at 30 µM amounted to 49.5%, the inhibition at 30 µM is at least 50% and the Emax came to 5 ± 6%.
Consider `CC1(c2ccc(C(=O)Nc3nc(-c4ccccc4)cs3)cc2)NC(=O)NC1=O` (stereo not shown) [BRI-12328], for which, at wild-type CysLT1R, the remaining activity at 30 µM came to 21%, the inhibition at 30 µM is at least 50% and the Emax amounted to 33 ± 8%. Further, at wild-type CysLT2R, the remaining activity at 30 µM came out at 38.1%, the inhibition at 30 µM is at least 50% and the Emax is 5 ± 7%.
Take `Cn1cc(S(=O)(=O)N[C@@H]2CC[C@H](C(=O)O)C2)cc1C(N)=O` [BRI-12303]: the remaining activity at 30 µM at wild-type CysLT1R came to 77.9%; on wild-type CysLT2R, 86.5%.
The matching figures for `O=C(O)COc1ccc(C=Cc2ccc3cccc(O)c3n2)cc1` [BRI-12340]: 70.2% and 78.9%.
Taken in the same sequence, the figures for `O=C(O)CCC1CCCCN1C(=O)Cc1c[nH]c2cc(F)ccc12` (stereo not shown) [BRI-12310] were 77.3% and 91.6%.
